What is called EC50 is the concentration needed to bring the measured effect to its halfway point.

EC50 data for 1 compound are collected here from patent US6534523B1, “Hepatitis C inhibitor tri-peptides” (Boehringer Ingelheim (Canada) Ltd., priority 1998, dated 2003).

The experiment concerns NS3 protease in Huh-7 cells co-transfected with NS3-NS4A-NS4B-NS5A-tTA and SEAP constructs. Nature of the experiment: NS3 protease surrogate cell-based assay (Example 39), SEAP reporter. The settings on record: Homo sapiens, SEAP activity, 24-h incubation, read-out: EC50 as determined by the assay of Example 39. An excerpt: NS3 Protease Cell-based Assay
This assay was done with Huh-7 cells, a human cell line derived from a hepatoma, co-transfected with 2 DNA constructs:
one expressing a polyprotein comprising the HCV non-structural proteins fused to tTA in the following order: NS3-NS4A-NS4B-NS5A-tTA (called NS3);
the other expressing the reporter protein, secreted alkaline phosphatase, under the control of tTA (called SEAP).
The polyprotein must be cleaved by the NS3 protease for the mature proteins to be released. Upon release of the mature proteins, it is believed that the viral proteins will form a complex at the membrane of the endoplasmic reticulum while tTA will migrate to the nucleus and transactivate the SEAP gene. Therefore, reduction of NS3 proteolytic activity should lead to reduction of mature tTA levels and concomitant decrease in SEAP activity.
To control for other effects of the compounds, a parallel transfection was done where a construct expressing tTA alone (called tTA) was co-transfected with the SEAP construct such that SEAP activity is independent of NS3 proteolytic activity. […] After a 24-h incubation period, an aliquot of the medium was drawn and the SEAP activity in this aliquot was measured with the Phospha-Light kit (Tropix). […]

Regarding `C=C[C@@H]1C[C@]1(NC(=O)[C@@H]1C[C@@H](Oc2cc(-c3ccccc3)nc3cc(OC)ccc23)CN1C(=O)[C@@H](NC(=O)OC(C)(C)C)C(C)C)C(=O)O` [compound 601], the EC50 stood at 8.2 µM.
